Measured values: EP0646375A1, “Method of regulating blood amino acid levels” (CLINTEC NUTRITION COMPANY, priority 1993, dated 1995)
Residues, ends and D or L forms follow the SMILES beside them.

Columns and labels:
in vivo = details: male, Sprague Dawley, rat, iv
Method: (§1) Experiments were performed on mature male Sprague Dawley rats (see Table II for weights). Prior to the experiments the animals were maintained on standard rat chow (Doust and Rabbidge, Sydney, Australia) and tap water. The animals were starved for 15-18h and then anaesthetized by peritoneal injection with Nembutal (Boehringer Ingelheim, Sydney, Australia) (4mg/kg Body Weight (B.W.) pentobarbitone). The internal jugular veins were exposed by blunt dissection and a small gauge silicone catheter (Dow Corning, Sydney, Australia) was introduced and secured with 5-0 silk sutures. Both internal jugular veins were catheterized; the left for dipeptide injection and the right for blood sampling. After insertion, the catheters were kept patent and with occasional flushes (0.2-0.5ml) of heparinized (10U/ml) isotonic saline.
(§2) All dipeptides were proven by to be >98% pure. […] Dipeptides were dissolved in 80mM sodium phosphate buffer, Ph 7.0, made isotonic with sodium chloride and filtered through a 0.2µm membrane filter (Millipore, Sydney, Australia).
(§3) Following an initial baseline blood sample (0.15-0.2ml) a bolus injection of dipeptide (0.2ml, see Table 1 for doses) was administered into the left catheter. Rapid blood samples were taken in the first 5 minutes and then at 10, 20 and 30 minutes following injection. Heparinized (10U/ml) isotonic saline (0.5ml) was injected into the sample catheter after the 5, 10 and 20 minute blood samples to maintain patency of the catheter. At each time point two blood samples were taken: the first, 0.1ml in volume, to remove traces of heparinized saline and blood from the catheter and the second, 0.15-ml in volume, for dipeptide and amino acid determination. One hour after injection of the dipeptide the bladder was exposed and urine was collected with a small gauge hypodermic needle.
(§4) Immediately following collection the blood (0.15-ml) and urine (0.5ml) samples were transferred to pre-weighed stoppered tubes containing 0.6ml of ice-cold 4% (w/v) sulfosalicylic acid. The samples were shaken vigorously and placed on ice for 10 minutes to allow complete deproteinization. The sample tubes were weighed and then centrifuged (bench-top, 1200 x g) for 10 minutes at 2-4°C. The resulting supernatant was filtered (0.45µm membrane, Millipore, Sydney, Australia) and stored at - 80°C. The volume of blood added to the tubes was determined by weight assuming a blood density of 1.06g/ml.
(§5) The concentration of dipeptides and amino acids in the deproteinized samples was determined using a HPLC modification of the standard ion-exchange chromatography, post-column ninhydrin method for physiological amino acids. The column temperature was modified for each dipeptide to produce complete separation of dipeptides and amino acids. The column temperatures were: 70°C for AlaGln, GlyTyr and GlnGly, 60°C for GlyGln, 55°C for GlnAla, and 45°C for AlaTyr.
(§6) Kinetic parameters were calculated for the disappearance of dipeptides, and the amino acids released from the dipeptides using standard equations. In calculating the amino acid clearance the dose was assumed to be that administered as the dipeptide. Baseline amino acid concentrations were subtracted from the amino acid concentrations measured following dipeptide injection to obtain the AUC for amino acids released from the dipeptides. AUC for dipeptides and the constituent amino acids was calculated using the trapezoidal method with extrapolation to infinite time.
(§7) Blood clearance was calculated by dividing the dose of dipeptide by the area under the blood concentration-versus-time curve (AUC). Elimination half-lifes (t½) were estimated from the relationship: t½ = ln2/β, where β is the rate constant for the terminal elimination phase. β was obtained by fitting the concentration-versus-time-curves to a two-compartment model by non-linear least squares regression.

[1] = rat, in vivo
Method: as §1, §2, §3, §4, §5, §6, §7

C[C@H](N)C(=O)N[C@@H](CCC(N)=O)C(=O)O [ALA-GLN] (H-Ala-Gln-OH)
clearance (in vivo): 122 mL/min/kg

C[C@H](N)C(=O)N[C@@H](Cc1ccc(O)cc1)C(=O)O [ALA-TYR] (H-Ala-Tyr-OH)
clearance (in vivo): 155 mL/min/kg

C[C@H](NC(=O)[C@@H](N)CCC(N)=O)C(=O)O [GLN-ALA] (H-Gln-Ala-OH)
mean Vβ of the dipeptide [1]: 0.06 to 0.07 L/kg
mean clearance of glutamine, times greater than glutamine from GlnGly or AlaGln [1]: 4 times
mean t½ of glutamine, times shorter than glutamine from GlnGly or AlaGln [1]: 3 times
CLEARANCE OF: Dipeptide ([1]; iv): 278 mL/min/kg

NC(=O)CC[C@H](N)C(=O)NCC(=O)O [GLN-GLY] (H-Gln-Gly-OH)
clearance (in vivo): 151 mL/min/kg

NCC(=O)N[C@@H](CCC(N)=O)C(=O)O [GLY-GLN] (H-Gly-Gln-OH)
mean Vβ of the dipeptide [1]: 0.06 to 0.07 L/kg
clearance (in vivo): 43 mL/min/kg

NCC(=O)N[C@@H](Cc1ccc(O)cc1)C(=O)O [GLY-TYR] (H-Gly-Tyr-OH)
mean Vβ of the dipeptide [1]: 0.06 to 0.07 L/kg
clearance (in vivo): 101 mL/min/kg

C[C@H](NC(=O)[C@@H](N)Cc1ccc(O)cc1)C(=O)O [TYR-ALA]
mean Vβ of the dipeptide [1]: 0.06 to 0.07 L/kg
clearance (in vivo): 187 mL/min/kg
